Assay results from US20100055116A1, “Methods and Compositions for Targeting c-Rel” (priority 2006, published 2010).
Peptide text beside a SMILES is read from it. * marks the point of attachment. Cbz = O=C(OCc1ccccc1)*; CH2F = FC*

How the values were obtained:
[1] = system: Pten-mutant B cells; test: Proliferation and survival assays (CFSE, propidium iodide staining) with anti-IgM; assay type: cell-based, mouse; details: for division of Pten-mutant cells: 3 days of stimulation with BCR signal, CFSE
Description: Pten(+/−) mice and Pten^flox/+ mice (background strain C57/BL6) were provided by Dr. Pandolfi PP (Di Cristofano et al., 1999 Science 285:2122). To generate B cell-specific Pten-deficient mice, Pten^flox/+ mice were crossed with CD19^cre/+ transgenic mice (purchased from Jackson lab). Offspring carrying CD19^cre/+ and the floxed Pten mutation on both alleles (Pten^flox/flox CD19^Cre/+), and the wild-type Pten gene (Pten^+/+ CD19^Cre/+) were used for analysis as homozygous mutant, wild-type mice, respectively. The mice were maintained under specific pathogen-free conditions in the animal colony of Weill Medical college of Cornell University. Pten^flox/flox CD19^Cre/+ mice were crossed with c-Rel-deficient mice (Tumang et al., 1998 Eur J Immunol 28:4299) to generate the double deficient mice.
For propidium iodide staining assay, B-cells were cultured in 10 μg/ml anti-IgM or 10 μg/ml anti-CD40 or 10 μg/ml LPS. At the indicated time points, cells were collected and stained with a solution containing 50 μg/ml propidium iodide, 20 ng/ml RNase A, 0.1% Triton X-100, and 0.1% sodium citrate. Duplicate samples were then analyzed on a Becton-Dickinson FACS using Cell-Quest software, and the percentage of apoptotic cells (<2N DNA content) or S and G2/M phase cells (>2N DNA content) quantified. For ^3H-thymidine incorporation assays, B-cells were plated at 1×10^5 cells per well in 96-well U-bottomed plates and cultured in complete media containing RPMI 1640, 10% heat inactivated FCS (DeWned; Hyclone, Logan, Utah), 2 mM L-glutamine, 1 mM non-essential amino acids, 100 μg/ml, penicillin/streptomycin, and 5×10^−5 M/L^−1 mercaptoethanol at 37° C. and 5% CO2. Where indicated, cells were stimulated with 10 μg/ml goat anti-mouse IgM F(ab′)2 (anti-IgM, Jackson ImmunoResearch Laboratories), or 10 μg/ml anti-CD40 (mAb 1C 10), or 10 μg/ml LPS. Six hours prior to the indicated time points, cultures were incubated with 0.5 μCi/well thymidine (Amersham), and then harvested onto Whatman Filters to determine proliferative responses by thymidine incorporation. […]

[2] = system: Pten-mutant and control B cells; test: Mitochondrial potential by JC-1 staining; assay type: cell-based, mouse; details: anti-IgM treatment, within 12 hours
Protocol: B cells were cultured to a density of 0.5−1.0×10^6 cells/ml. For each condition, 1 ml of cells was treated with the appropriate agent for the appropriate length of time as shown in FIG. 8C. Mitochondrial potential was assessed by using the fluorescent potentiometric dye JC-1 (5,5′,6,6′,-tetrachloro-1,1′,3,3′-tetraethylbenzimidazolylcarbocyanine iodide, Molecular Probe). JC-1 is a novel cationic carbocyanine dye that accumulates in mitochondria. The dye exists as a monomer at low concentrations and yields green fluorescence, similar to fluorescein. […] These characteristics make JC-1 a sensitive marker for mitochondrial membrane potential. Briefly, 0.3 ml of the cells were mixed with 0.3 ml of staining solution (complete medium containing 0.5 μg/1 ml JC-1). Cells were stained for 30 min in a 37° C. incubator (5% CO2). After staining, cells were collected at room temperature and washed once in 1×PBS. The cell pellet was then resuspended in PBS (pre-warmed to 37° C.), and JC-1 fluorescence was analyzed on a Becton-Dickinson FACS using Cell-Quest software.

[3] = system: immature B cells; test: BCR-induced mitochondrial depolarization, JC-1 staining; assay type: cell-based, mouse; details: 50 mM inhibitor, anti-IgM
Protocol: Mature and immature B cells (>95% B220+) were isolated from untreated mice or sublethally irradiated mice by complement-mediated lysis and Percoll gradient as described previously, and cultured in RPMI 1640 media containing 10% fetal calf serum (FCS) (Cellgro), 1% penicillin, 1% streptomycin (both Life Sciences BRL), and 50 uM b-mercaptoethanol (Sigma). For caspase experiments, 2×10^6/ml B cells were plated per well in 24-well polystyrene flat-bottom plates (Corning) in 1000 ul of total culture volume. The following combinations of agents were added for 12 hr or 24 hr at 37° C.: 10 mg/ml of goat anti-mouse IgM F(ab)2 (anti-IgM, Jackson ImmunoResearch Laboratories), 50 mM of z-VAD-fmk, a pan-caspase inhibitor, or 50 mM of z-LEHD-fmk, a specific […], or 50 mM of z-FA-fmk, a cathepsin B inhibitor (Enzyme System Products). For the PI3K assay, 5×10^6 B cells were plated per well in 24-well polystyrene flat-bottom plates (Corning) in 2 ml final culture volume, with 10 mg/ml of goat anti-mouse IgM F(ab′)2 added for the indicated time at 37° C. […]
Cells were cultured at a density of 0.5−1.0×10^6 cells/ml. […] The dye exists as a monomer at low concentrations and yields green fluorescence, similar to fluorescein. […] The cell pellet was then resuspended in PBS, and JC-1 fluorescence analyzed by FACS.

[4] = system: immature B cells; test: Anti-IgM induced apoptosis; assay type: cell-based, mouse; details: 50 mM inhibitor
Protocol: Mature and immature B cells (>95% B220+) were isolated from untreated mice or sublethally irradiated mice by complement-mediated lysis and Percoll gradient as described previously, and cultured in RPMI 1640 media containing 10% fetal calf serum (FCS) (Cellgro), 1% penicillin, 1% streptomycin (both Life Sciences BRL), and 50 uM b-mercaptoethanol (Sigma). For caspase experiments, 2×10^6/ml B cells were plated per well in 24-well polystyrene flat-bottom plates (Corning) in 1000 ul of total culture volume. […]
The following antibodies were used for FACS analysis: anti-CD24 (HSA), anti-CD21, anti-IgD, anti-IgM, and anti-B220 (RA3-6B2), labeled with R-phycoerythrin (PE), FITC or Allophyocyanin (APC), all purchased from Pharmigen. […] Duplicate samples were then analyzed by FACS (Becton-Dickinson) using CellQuest software, and the percentage of apoptotic cells (<2N DNA content) or S and G2/M phase cells (>2N DNA content) quantified. For PIP3 assays, PIP3 levels were measured using a biotin-labeled antibody against anti-PI-3,4,5-P3 (a gift from Dr. Paul Neilsen, Echelon, Salt Lake City, Utah) and FACS following a published protocol.

[5] = molecular target: T1, c-Rel (homodimer) (Homo sapiens, UniProt Q04864 Q04864:2-619); test: FP; 10 nM probe; FP saturated at 128 nM c-Rel; Kd said to be larger than by EMSA but no number in text; abolished by GST-IkBa; details: tags: C-terminal His, E. coli BL-21 Lys (DE3); full-length or subdomain (not specified); chain copies: 2 stated; label: 5'-FITC
T1 sequence: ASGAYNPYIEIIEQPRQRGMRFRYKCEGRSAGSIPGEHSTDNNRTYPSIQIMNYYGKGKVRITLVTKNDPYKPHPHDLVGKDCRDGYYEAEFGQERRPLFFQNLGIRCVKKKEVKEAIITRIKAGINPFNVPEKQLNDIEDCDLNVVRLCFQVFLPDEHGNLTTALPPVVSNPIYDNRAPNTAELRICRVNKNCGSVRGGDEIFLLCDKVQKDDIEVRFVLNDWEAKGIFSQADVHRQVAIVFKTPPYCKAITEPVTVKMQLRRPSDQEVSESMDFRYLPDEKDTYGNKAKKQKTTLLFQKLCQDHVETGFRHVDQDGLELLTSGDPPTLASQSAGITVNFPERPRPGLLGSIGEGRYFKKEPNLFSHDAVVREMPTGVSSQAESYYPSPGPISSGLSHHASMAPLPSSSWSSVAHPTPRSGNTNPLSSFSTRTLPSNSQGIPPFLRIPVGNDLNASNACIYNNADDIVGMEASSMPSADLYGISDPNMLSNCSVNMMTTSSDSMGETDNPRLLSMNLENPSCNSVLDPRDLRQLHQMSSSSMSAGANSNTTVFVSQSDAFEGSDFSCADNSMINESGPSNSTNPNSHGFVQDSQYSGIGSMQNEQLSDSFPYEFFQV
Protocol: (§1) According to the EMSA data, the concentrations of FITC-labeled DNA probe and c-Rel protein used in FP screen assay were optimized. Initially, the fluorescently labeled probe was added in different concentrations (5 nM, 10 nM, 100 nM) while c-Rel protein concentration (2000 nM) was constant, and the reactions were incubated for 15-30 minutes at room temperature, and then transferred to the wells of 384-well plate (20 μl/well). The FP values were measured using FUSION Universal Microplate Analyzer (Perkin Elmer, PE). […] In most cases, there is an increase in FP, with FP signals saturated in the presence of 128 nM of c-Rel. The dissociation constant (Kd) calculated using this method is larger than that observed using EMSA.
It was next investigated whether this assay could detect a known endogenous inhibitor (IkBα) of c-Rel activity. […] Recombinant GST-IkBα previously generated (final concentration is 150 nM) was added to a binding reaction consisting of 10 nM FITC-CD28RE and 100 nM c-Rel. […] Thus, this assay detected specific inhibitors that function by directly binding c-Rel protein and inducing a conformation change. Moreover, consistent with the scatter data distribution shown in FIG. 3d, z factor, one assay performance indicator, was also evaluated. […]

[6] = molecular target: T1, c-Rel (homodimer); test: competition; unlabeled CD28RE returns FP to basal level at 128 nM; details: tags: C-terminal His, E. coli BL-21 Lys (DE3); full-length or subdomain (not specified); chain copies: 2 stated
Protocol: as §1
To exclude the possibility that non-specific interaction of c-Rel protein with DNA molecules contributes to the increase in FP value, a cold competition experiment was performed. […] However, a control DNA molecule, the unlabeled Oct1 (20 mers) in the same conditions as applied to the cold CD28RE probe, had no effect on FP value. Thus, this assay specifically and quantitatively measured interactions in the interface between c-Rel protein and CD28 RE.

Molecule: CC(C)C[C@H](NC(=O)[C@H](Cc1ccccc1)NC(=O)c1cnccn1)B(O)O [Velcade]
- division of Pten-mutant cells [1]: completely blocked
- mitochondrial depolarization [2]: mitochondrial depolarization

Molecule: COC(=O)C[C@H](NC(=O)[C@H](C)NC(=O)[C@@H](NC(=O)OCc1ccccc1)C(C)C)C(=O)CF [z-VAD-fmk] (Cbz-Val-Ala-Asp(OMe)-CH2F)
- BCR-induced changes in DY (mitochondrial membrane potential) [3]: Neither inhibitor reversed

Molecule: Cc1ccc(S(=O)(=O)/C=C/C#N)cc1 [Bay 11]
- division of Pten-mutant cells [1]: completely blocked
- cell apoptosis ([1]; propidium iodine staining): significant cell apoptosis
- mitochondrial depolarization [2]: mitochondrial depolarization

Molecule: CC(NC(=O)[C@H](Cc1ccccc1)NC(=O)OCc1ccccc1)C(=O)CF (stereo partly shown) [z-FA-fink]
- anti-IgM induced apoptosis [4]: failed to inhibit

Molecule: COC(=O)CC[C@H](NC(=O)[C@H](CC(C)C)NC(=O)OCc1ccccc1)C(=O)N[C@@H](Cc1cnc[nH]1)C(=O)N[C@@H](CC(=O)OC)C(=O)CF [z-LEHD-fmk] (Cbz-LE(OMe)HD(OMe)-CH2F)
- BCR-induced changes in DY (mitochondrial membrane potential) [3]: Neither inhibitor reversed

B1: CD28RE kB site 20-mer FITC probe (dsDNA)
DNA 1: TCTGGAATTTCTTTAAACCC
DNA 2: GGGTTTAAAGAAATTCCAGA
- binding result [5]: binds

B2: CD28RE EMSA probe/unlabeled competitor (dsDNA)
DNA 1: TCTGGAATTTCTTTAAACCC
DNA 2: GGGTTTAAAGAAATTCCAGA
- binding result [6]: binds
